# Experimental data reported in patent US9896441B2 (Lycera Corporation, priority 2014, dated 2018).
# Experiments:
# RORγ-LBD = target: T1, RORγ-LBD (Homo sapiens, UniProt P51449); assay: RORγ-Ligand Binding Domain (LBD) TR-FRET Assay; type: biochemical;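 as to TR-FRET Assay Max Response: 665/615 nm signal ratio set to 100 without ursolic acid or test compound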
# T1 construct: made in house; host or cells: SF9 cells (baculovirus); used as diluted lysate
# T1 sequence (P51449 269-508 limits assumed): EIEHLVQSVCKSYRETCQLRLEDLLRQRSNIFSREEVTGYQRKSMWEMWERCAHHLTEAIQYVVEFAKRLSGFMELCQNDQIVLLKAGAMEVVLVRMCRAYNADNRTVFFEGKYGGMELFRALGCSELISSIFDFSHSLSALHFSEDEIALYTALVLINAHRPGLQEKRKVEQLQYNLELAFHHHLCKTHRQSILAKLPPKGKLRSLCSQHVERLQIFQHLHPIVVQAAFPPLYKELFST
# How it was run: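 Lysate from SF9 cells expressing His-RORγ-LBD is diluted to about 3 nM final in 50 mM Tris pH 7.0 assay buffer. A biotin-tagged SRC1 LXXLL peptide goes in at 200 nM final, plus ursolic acid at 2 μM final. Test compounds carry 1% DMSO final; signal read by TR-FRET.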
# Gal4-RORγ-LBD = target: T2, Gal4-RORγ-LBD (Homo sapiens, UniProt P51449); assay: Gal4-RORγ Luciferase Reporter Assay in HEK-293T Cells; type: cell-based; conditions: HEK-293 cells, luciferase reporter
# T2 construct: expressed in transfected cells
# T2 sequence (P51449 269-508 limits assumed): T1 sequence (P51449 269-508 limits assumed)
# How it was run: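 Max Response was taken as the upper plateau of a 4-parameter logistic fit of luciferase signal, normalized to 100 for wells without ursolic acid or compound. Transiently Gal4-RORγ-LBD/Gal4-luc transfected HEK-293 cells carrying […] ursolic acid were incubated with test compounds (0.2% DMSO) overnight at 37 °C and read with One-Glo.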
SMILES,EC50 (RORγ-LBD; RORγ-LBD TR-FRET) [nM],EC50 (Gal4-RORγ-LBD; with ursolic acid) [nM],EC50 (RORγ-LBD; RORγ-LBD TR-FRET assay) [nM],"TR-FRET Assay Max Response (RORγ-LBD; RORγ-LBD TR-FRET assay, maximum response)",EC50 (Gal4-RORγ-LBD; in presence of ursolic acid) [nM],"Gal4-RORγ Assay Max Response (Gal4-RORγ-LBD; in presence of ursolic acid, maximum response)"
"O=C(O)CC[C@H]1CN(S(=O)(=O)c2cc(C(F)(F)F)cnc2OCCO)c2cc(C=C3CCC(F)(F)CC3)ccc2O1 [Example 95M, (S)-3-(6-((4,4-difluorocyclohexylidene)methyl)-4-((2-(2-hydroxyethoxy)-5-(trifluoromethyl)pyridin-3-yl)sulfonyl)-3,4-dihydro-2H-benzo[b][1,4]oxazin-2-yl)propanoic acid]",< 500,500 to 5000,–,–,–,–
"CC/C(=C\c1ccc2c(c1)N(S(=O)(=O)c1cccc(C(F)(F)F)c1)C[C@H](CCC(=O)O)O2)c1ccccc1 [Example 36C, (S,E)-3-(6-(2-phenylbut-1-en-1-yl)-4-((3-(trifluoromethyl)-phenyl)sulfonyl)-3,4-dihydro-2H-benzo[b][1,4]oxazin-2-yl)propanoic acid]",< 500,500 to 5000,–,–,–,–
"COC(=O)CC[C@H]1CN(S(=O)(=O)c2ccc(F)c(C3CC3)c2)c2cc(/C=C(\C)c3c(F)cccc3Cl)ccc2O1 [Example 86D, (S,E)-methyl 3-(6-(2-(2-chloro-6-fluorophenyl)prop-1-en-1-yl)-4-((3-cyclopropyl-4-fluorophenyl)-sulfonyl)-3,4-dihydro-2H-benzo[b][1,4]oxazin-2-yl)propanoate]",< 500,< 500,–,–,–,–
"O=C(O)CC[C@H]1CN(S(=O)(=O)c2cc(C(F)(F)F)cnc2OCCO)c2cc(C=C3CCCCC3)ccc2O1 [Example 95C, (S)-3-(6-(cyclohexylidenemethyl)-4-((2-(2-hydroxyethoxy)-5-(trifluoromethyl)pyridin-3-yl)sulfonyl)-3,4-dihydro-2H-benzo[b][1,4]oxazin-2-yl)propanoic acid]",< 500,500 to 5000,–,–,–,–
"C/C(=C\c1ccc2c(c1)N(S(=O)(=O)c1cccc(C(F)(F)F)c1)C[C@H](CCCN1CCC(O)C1)O2)c1c(F)cccc1Cl (stereo partly drawn) [Example 119B, 1-(3-((S)-6-((E)-2-(2-chloro-6-fluorophenyl)prop-1-en-1-yl)-4-((3-(trifluoromethyl)-phenyl)-sulfonyl)-3,4-dihydro-2H-benzo[b][1,4]-oxazin-2-yl)propyl)-pyrrolidin-3-ol]",–,–,< 500,*** (a value in the range of greater than 150 to 200),500 to 5000,** (a value in the range of greater than 90 to 150)
"COC(=O)CC[C@H]1CN(S(=O)(=O)c2cc(Cl)cnc2OCCO)c2cc(/C=C/c3c(F)cccc3Cl)ccc2O1 [Example 89AK, methyl (S,E)-3-(4-((5-chloro-2-(2-hydroxyethoxy)pyridin-3-yl)sulfonyl)-6-(2-chloro-6-fluorostyryl)-3,4-dihydro-2H-benzo[b][1,4]oxazin-2-yl)propanoate]",< 500,500 to 5000,–,–,–,–
"O=C(O)CC[C@H]1CN(S(=O)(=O)c2cccc(C(F)(F)F)c2)c2cc(/C=C3\CCOc4ccccc43)ccc2O1 [Example 38B, (S,E)-3-(6-(chroman-4-ylidenemethyl)-4-((3-(trifluoromethyl)-phenyl)sulfonyl)-3,4-dihydro-2H-benzo[b][1,4]oxazin-2-yl)propanoic acid]",< 500,500 to 5000,–,–,–,–
"CCOc1ncc(C(F)(F)F)cc1S(=O)(=O)N1C[C@H](CCC(=O)O)Oc2ccc(/C=C/c3c(F)cccc3Cl)cc21 [Example 89DU, (S,E)-3-(6-(2-chloro-6-fluorostyryl)-4-((2-ethoxy-5-(trifluoromethyl)pyridin-3-yl)sulfonyl)-3,4-dihydro-2H-benzo[b][1,4]oxazin-2-yl)propanoic acid]",< 500,500 to 5000,–,–,–,–
"COC(=O)CC[C@H]1CN(S(=O)(=O)c2cccc(OC(F)F)c2)c2cc(/C=C(\C)c3c(F)cccc3Cl)c(Cl)cc2O1 [Example 47, (S,E)-Methyl 3-(6-(2-(2-chloro-6-fluorophenyl)prop-1-en-1-yl)-4-((3-(difluoromethoxy)phenyl)sulfonyl)-7-chloro-3,4-dihydro-2H-benzo[b][1,4]oxazin-2-yl)propanoate]",< 500,5000 to 10000,–,–,–,–
